The source of these data is US8329681B2, “Methods and compositions for the efficient delivery of therapeutic agents to cells and animals” (University of Massachusetts, priority 2005, dated 2012).

In one test the test system is HeLa cells. Kind of test: Transfection of pSV-β-gal plasmid, β-galactosidase reporter activity. The class given is cell-based, human. The protocol:
(§1) Cationic lipids and the co-lipids in chloroform were dried under a stream of N2 gas and vacuum-desiccated for a minimum of 6 h to remove residual organic solvent. The dried lipid film was hydrated in sterile deionized water at cationic lipid concentration of 1 mM for a minimum of 12 h. Liposomes were vortexed to remove any adhering lipid film and probe sonicated until a clear translucent solution is formed. The pDNA solution was added to the liposomes, mixed properly by pipeting and shaken on a rotary shaker (15-30 mins.) before use.
(§2) Cells were seeded at a density of 20,000 (for HeLa cells), 16,000 (for A-549 cells), 8,000 (for FL83B cells) per well in a 96-well plate 18-24 h before transfection. An amount of 0.30 μg of pDNA was complexed with varying amounts of lipids (to give +/− ratios of 0.3:1, 1:1, 3:1 and 9:1) in plain OPTIMEM (total volume made up to 100 μl) and then shaken on a rotary shaker at room temperature for 20-30 minutes. The complexes were then added to the cells. After 5 h of incubation, 200 μl of complete medium containing 10% FBS in DMEM for HeLa and 10% FBS in F-12K for FL83B and A549 was added to the cells. The medium was changed after 24 h and the reporter gene activity was estimated 48 h after transfection. Cells were washed with PBS (100 μl) and lysed in […] lysis buffer (5× reporter lysis buffer diluted to 1×, working concentration). The β-galactosidase activity per well was estimated by adding 50 μl of 2× substrate solution (1.33 mg/ml of ONPG, 0.2 M sodium phosphate, pH 7.15 and 2 mM magnesium chloride) to the lysate in a 96-well plate. Absorbance of the product ortho-nitrophenol was measured at 420 nm. The absorbance values reported are the average values from two replicate experiments performed in the same plate on the same day. Each transfection experiment was performed three times on three different days to control for variations in transfection efficiency.
(§3) Briefly, the efficacy of various lipid formulations were tested in three cell lines A-549, FL83B and HeLa cells and the transfection efficiencies of the cationic liposomal formulations were compared with a commercially available transfection reagent (e.g., Lipofectamine 2000).

Another test concerns A549 cells. Described as above. The class given is cell-based, human. The protocol:
as §1, §2, §3

Test [1] concerns CDK9 expression. Kind of test: In vivo delivery of CDK9 siRNA with liposome by tail vein injection, CDK9 expression in spleen. The arrangement: species or system BALB/c mice. Conditions: Cy3-labeled CDk9 siRNA (25 μg) and liposome (125 μg), repeated 4 and 8 h later, within the initial 24 h after treatment. How it is done:
(§4) Total RNA was extracted from tissues or cultured cells using Trizol (Invitrogen, Carlsbad, Calif.), and real-time RT-PCR for CDK9 and GAPDH mRNA quantification was carried out using 200 ng of total RNA and the QuantiTect SYBR Green RT-PCR Kit (Qiagen, Valencia, Calif.) according to the manufacturer's instructions. The ratio of CDK9 and GAPDH mRNA was calculated and expressed as a group average relative to the control group. The specific probe for detection of CDK9 mRNA levels was designed to the following regions of the CDK9 mRNA ORF, the forward primer 5′ TCGGACCAA AGCCTCACCGTATAA 3′, the reverse primer 5′ […] TTG 3′
Male BALB/c mice, 6-8 weeks of age and weighting 20-22 g, were purchased form the Jackson Laboratory (Bar Harbor, Me.). Synthetic siRNA were delivered in vivo using following method. For each mice 25 μg of siRNA in 100 μl of HEPES Buffered Saline (20 mM HEPES, 150 mM NaCl, pH 7.4) was transferred into a sterile tube. In a separate sterile tube 125 μg of liposome was mixed with 200 μl HEPES Buffered Saline. The siRNA solution was transferred to the tube containing liposome solution and then incubated at room temperature for 20 minutes. 200 μl of the complexes was injected via the tail vein, using a 1-ml syringe and 27-gauge needle. The injection was repeated 4 and 8 h later. Control mice were injected with an equal volume of liposome. At 24 h after the last injection, the mice were sacrificed and tissues were harvested for further analysis. CDK9 expression level was normalized with GAPDH and then compared to those obtained from control animals and shown as percent expression. The data represent the mean value +/− SD of three to five mice in each group.
Briefly, the ability of the new synthesized liposome to deliver siRNA in mice was investigated. BALB/c mice were administrated with complexes of Cy3-labeled CDk9 siRNA (25 μg) and liposome (125 μg) via normal pressure tail vein injection. The injection was repeated 4 and 8 h later. Control mice were administrated with an equal amount of liposome. […]

The subject of test [2] is CDK9 expression. Kind of test: Liposome-mediated CDK9 siRNA gene knock-down in FL83B cells, real-time RT-PCR. Conditions: CDK9 siRNA transfected with liposome. The class given is cell-based, rat. How it is done:
as §4
FL83B were cultured in F-12K medium (ATCC, Manassas, Va.) with 10% fetal bovine serum at 37° C. in 5% CO2. FL83B were plated on 6-well plates at 70% confluency 24 hours before transfection. […] Gene silencing was monitored by Real-time RT-PCR.
The complexes of CDK9 siRNA (2 μg) and DOATP-Chol (10 μg) or DMTAP-Chol (10 μg) or Transfast-Chol […] were added to Opti-MEM I medium and cells were incubated in the mixture for 6 hr. […] RNA was extracted from cells using Trizol Reagent and real-time RT-PCR for CDK9 and GAPDH mRNA quantification was carried out using 200 ng of total RNA and the QuantiTect SYBR Green RT-PCR Kit. The ratio of CDK9 and GAPDH mRNA was calculated and expressed as a group average relative to the control group. […]
In general terms: In qPCR the cycle at which signal appears reflects the starting amount.

The mark [3] stands for this setting: alone, lipid:DNA charge ratios 1:1 and 0.3:1.
Where [4] appears, read: in combination with DOPE, charge ratio 3:1.

As to `CCCCCCCCC=CCCCCCCCC(=O)OC(COC(=O)CCC(=O)OC1CCC2(C)C(=CCC3C2CCC2(C)C(C(C)CCCC(C)C)CCC32)C1)C[N+](C)(C)C.[I-]` (centres unmarked) [Lipid 8, N,N,N-Trimethyl-N-[2-(9(Z)-octadecanoyloxy),3-succinyloxy(4-cholesteryloxy)-propyl]ammonium iodide], the “transfection efficiency, fold less than Lipofectamine 2000” value with HeLa cells (setting [3]) was roughly 1.5 fold; with HeLa cells (setting [4]), “more than 1.5 fold”; in the test on A549 cells (in combination with DOPC), “about 1 fold”. The “transfection efficiency compared with Lipofectamine 2000” value was “comparable” in the test on HeLa cells (in combination with DOPC, charge ratio of 1.1); “one fold less” in the test with A549 cells (setting [3]); “comparable” with A549 cells (setting [4]). Further, in the test with CDK9 expression [1], the “CDK9 expression level in the spleen decreased by” value is recorded as 28%. Besides, in the test with CDK9 expression [2], the “knockdown of CDK9 expression” value is reported as 67%.
